“And” between values parts separate entries of the source, which are not always exact repeats. Equal values may be shown once.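 All cell lines were grown in 96-well plates and treated with compound for 48 hours. At the GI50, growth is halved. TGI: total growth inhibition.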
Tests used:
Test in all cases: inhibition of tumour cell growth, NCI panel, 48 h
A549 NSCLC = tested on: A549 NSCLC
HCT-116 colon = tested on: HCT-116 colon
K-562 leukemia = tested on: K-562 leukemia
M14 melanoma = tested on: M14 melanoma
NCI-H522 lung = tested on: NCI-H522 lung
SF-268 CNS = tested on: SF-268 CNS
SK-MEL-28 melanoma = tested on: SK-MEL-28 melanoma
TK-10 renal = tested on: TK-10 renal
UACC-257 melanoma = tested on: UACC-257 melanoma
UO-31 renal = tested on: UO-31 renal

SMILES | GI50 (A549 NSCLC) [µM] | TGI (A549 NSCLC) | GI50 (HCT-116 colon) [µM] | TGI (HCT-116 colon) | GI50 (K-562 leukemia) [µM] | TGI (K-562 leukemia) | GI50 (M14 melanoma) [µM] | TGI (M14 melanoma) | GI50 (NCI-H522 lung) [µM] | TGI (NCI-H522 lung) | GI50 (SF-268 CNS) [µM] | TGI (SF-268 CNS) | GI50 (SK-MEL-28 melanoma) [µM] | TGI (SK-MEL-28 melanoma) | GI50 (TK-10 renal) [µM] | TGI (TK-10 renal) [µM] | GI50 (UACC-257 melanoma) [µM] | TGI (UACC-257 melanoma) | GI50 (UO-31 renal) [µM] | TGI (UO-31 renal)
COc1ccc(NC(=O)COc2ccccc2)c(C(N)=O)c1 | 1.09 | > 100 µM | 0.588 | > 100 µM | 0.348 | > 100 µM | 0.499 | > 100 µM | 0.812 | 13.3 µM | 4.25 | > 75.1 µM | 6.13 | > 100 µM | 18.3 | > 100 | > 100 | > 100 µM | 6.99 | > 100 µM
C=C(c1ccccc1)[C@@]1(O)CCCC[C@H]1NC(c1ccccc1)c1ccccc1 | – | 26.2 µM | – | 20.5 µM | – | 29.1 µM | – | 27.6 µM | – | 21.6 µM | – | 27.6 µM | – | 30.2 µM | – | 32.5 | – | 25.1 µM | – | 27.6 µM
Cc1cc(NCCCNc2ccnc3cc(Cl)ccc23)nc(Nc2ccc(C(=O)N3CCCCC3)cc2)n1 | 3.56 | 10.4 µM | 2.22 | 5.83 µM | 1.98 | 6.4 µM | 2.12 | 4.06 µM | 2.19 | 4.45 µM | 1.91 | 5.11 µM | 2 | 3.75 µM | 1.99 | 4.59 | 2.39 | 4.56 µM | 2.16 | 5.87 µM
CN1CCN2c3ccccc3CC(C#N)(C#N)C2C1 (stereo not given) | – | > 100 µM | – | > 100 µM | – | > 100 µM | – | > 100 µM | – | > 100 µM | – | > 100 µM | – | > 100 µM | – | > 100 | – | > 100 µM | – | > 100 µM
CC(=O)CC(=O)ON(C)C(C)=O | – | > 100 µM | – | > 100 µM | – | > 100 µM | – | > 100 µM | – | > 100 µM | – | > 100 µM | – | > 100 µM | – | > 100 | – | 56.4 µM | – | > 100 µM
O=C(/C=C/c1ccccc1)Nc1ncc(Cc2ccccc2)s1 | 0.322 | > 55.1 µM | 0.141 | > 33.4 µM | 0.0624 | > 37.1 µM | 0.114 | 3.03 µM | 0.112 | 3.83 µM | 0.963 | > 100 µM | 1.7 | > 100 µM | 1.34 | > 46.4 | 10.7 | > 100 µM | 0.463 | 23.3 µM
COC1=CC(=O)c2c(O)c3c(c(O)c2C1=O)OC1(Oc2c(cc4cc(C)oc(=O)c4c2O)CC1O)C3O (stereo not given) | – | > 100 µM | – | > 100 µM | – | > 100 µM | – | > 100 µM | – | 54.6 µM | – | > 100 µM | – | > 100 µM | – | > 100 | – | > 100 µM | – | > 100 µM
O=c1ncc(I)c[nH]1 | > 100 | > 100 µM | > 100 | > 100 µM | > 100 | > 100 µM | > 100 | > 100 µM | > 100 | > 100 µM | > 100 | > 100 µM | > 100 | > 100 µM | > 100 | > 100 | > 100 | > 100 µM | > 100 | > 100 µM
CCOc1ccc(NC(=O)/C(Cc2nc3ccccc3[nH]c2=O)=N\O)cc1 | – | > 100 µM | – | > 100 µM | – | > 100 µM | – | > 100 µM | – | > 100 µM | – | > 100 µM | – | > 100 µM | – | > 100 | – | > 100 µM | – | > 100 µM
C[C@]12CC[C@H](OC(=O)Cc3ccc(N(CCCl)CCCl)cc3)CC1CC[C@@H]1C2CC[C@]2(C)NC(=O)CCC12 (stereo not given in full) | – | 37.5 µM | – | 18.5 µM | – | 24.8 µM | – | 28.8 µM | – | 25.4 µM | – | 33 µM | – | 31.9 µM | – | 44.4 | – | 27 µM | – | > 100 µM
O=S1(=O)OCc2ccccc21 | – | > 100 µM | – | > 100 µM | – | > 100 µM | – | > 100 µM | – | > 100 µM | – | > 100 µM | – | > 100 µM | – | > 100 | – | > 100 µM | – | > 100 µM
CS(=O)(=O)OCCCCOS(C)(=O)=O | 538 | 243 µM and > 1000 µM | 689 | 250 µM and > 1000 µM | 795 | 223 µM and > 1000 µM | 765 | 250 µM and > 1000 µM | 466 | 250 µM and > 1000 µM | 424 | 223 µM and > 1000 µM | 980 | 232 µM and > 1000 µM | > 464 | > 464 | 571 | 230 µM and > 1000 µM | > 886 | 250 µM and > 1000 µM
CC(C)(C)n1nc(C2CC2)cc1NC(=O)Nc1ccc(Cl)cc1 | – | > 100 µM | – | > 100 µM | – | > 100 µM | – | > 100 µM | – | > 100 µM | – | > 100 µM | – | > 100 µM | – | > 100 | – | > 100 µM | – | > 100 µM
C/C(=N\NC(=O)c1cccc(S(=O)(=O)N2CCN(C)CC2)c1)c1cc(Cl)ccc1O | 0.761 | > 100 µM | 0.48 | > 76.2 µM | 0.824 | > 52.8 µM | 1.06 | 9.85 µM | 1.26 | > 72.7 µM | 0.933 | > 63.8 µM | 1.36 | > 61.3 µM | 0.491 | > 88.6 | 2.37 | 25.8 µM | 0.184 | 12.6 µM
Cc1cc(Cl)ccc1NC(=O)C1C(=O)C(=O)N(c2ccc(Cl)cc2C)C1=O (stereo not given) | – | > 100 µM | – | > 100 µM | – | > 100 µM | – | > 100 µM | – | > 100 µM | – | > 100 µM | – | > 100 µM | – | > 100 | – | > 100 µM | – | > 100 µM
NNC(=O)C(O)C(O)C(O)CO (stereo not given) | – | > 100 µM | – | > 100 µM | – | > 100 µM | – | > 100 µM | – | > 100 µM | – | > 100 µM | – | > 100 µM | – | > 100 | – | > 100 µM | – | > 100 µM
O=c1[nH]ccc2nc(N3CCC(O)CC3)nc(Nc3ccc(N4CCOCC4)cc3)c12 | 3.9 | > 100 µM | 0.736 | > 100 µM | > 100 | > 100 µM | 0.351 | > 100 µM | > 100 | > 100 µM | 5.94 | > 100 µM | > 100 | > 100 µM | > 26.3 | > 100 | > 100 | > 100 µM | 0.374 | > 100 µM

Reference: PubChem BioAssay (NCI)
